# Measurements taken from publication PMC9241695, “Selective Metal Chelation by a Thiosemicarbazone Derivative Interferes with Mitochondrial Respiration and Ribosome Biogenesis in Candida albicans” (Microbiology Spectrum, 2022).
# Assays:
# Test in all cases: Antifungal susceptibility testing, microbroth dilution MIC
# Format in all cases: cell-based
# [1] = tested on: C. neoformans H99; settings: Cryptococcus neoformans, H99, 48 h, read-out: MIC (μg/mL) against fungi H99
# Text: (§1) Compound library. The thiosemicarbazone derivatives Triapine and COTI-2 were purchased from Med Chem Express (MCE). The other 87 thiosemicarbazones used in this study were previously synthesized by our collaborators (1, 2). Their structures are shown in Table 1 and Table S1 to help the reader clearly understand the relationship between structure and activity.
# (§2) Strains and culture conditions. Clinically derived C. albicans isolates, including G5, F5, and Gu5, were kindly provided by Professor Joachim Morschhäuser of the University of Würzburg. Other clinical C. albicans isolates were kindly donated by Professor Qingguo Qi of Shandong University and Qianfoshan Hospital of Shandong Province Other Candida strains were obtained from Jinan Central Hospital.
# (§3) The zap1 mutant and its complemented strain were kindly provided by Professor Aaron P. Mitchell of Carnegie Mellon University (3). The C. neoformans strains used in this study was kindly donated by Professor Guojian Liao of Southwest University and A. fumigatus strain used in this study was provided by Professor Ling Lu of Nanjing Normal University. […]
# (§4) Antifungal susceptibility testing. To determine in vitro antifungal activities, the microbroth dilution method was carried out in RPMI1640 medium according to the guidelines of the Clinical and Laboratory Standards Institute (4, 5). The initial concentration in RPMI1640 medium was 1 × 10^3 CFU/mL for the C. albicans and C. neoformans suspensions but 1 × 10^4 CFU/mL for A. fumigatus. The range of final drug concentrations was 0.0156–64 μg/mL. The plates were incubated at35°C for 24 […]
# (§5) h (for C. albicans, C. krusei, C. tropicalis, C. parapsilosis) or 48 h (for C. neoformans, A. fumigatus). The MIC was determined based on visible growth inhibition compared with the control. All experiments were performed in duplicate. […]
# [2] = tested on: A. fumigatus AF293; settings: Aspergillus fumigatus, AF293, 48 h, read-out: MIC (μg/mL) against fungi AF293
# Text: as §1, §2, §3, §4, §5
# [3] = tested on: C. albicans SC5314; settings: Candida albicans, SC5314, 24 h, read-out: MIC (μg/mL) against fungi SC5314
# Text: as §1, §2
# as §3, with “University. Before in vitro and in vivo experiments, all C. albicans strains were grown on YPD agar plates. After culturing at 30°C for 24 h, colonies of each strain were cultured in liquid YPD medium at 30°C with continuous shaking” for “University.”
# as §4, §5
smiles,measurement,setting,value
S=C(N/N=C/c1ccccn1)N1CCOCC1 [Compound 19ao],MIC,[1],0.5 µg/mL
same,MIC,[2],8 µg/mL
same,MIC,[3],2 µg/mL
